Data on three compounds can be found in ChEMBL document CHEMBL2074127, “P-glycoprotein in the blood-brain barrier of mice influences the brain penetration and pharmacological activity of many drugs” (J Clin Invest, 1996).

Data set [1] has as its target T1, ATP-dependent translocase ABCB1 (Mus musculus, UniProt P21447). The data set can be described thus: TP_TRANSPORTER: increase in brain concentration in mdr1a(-/-) mouse. As to conditions: in vivo. The class given is functional, organism-based.
For data set [2], the target named is ATP-dependent translocase ABCB1 (Homo sapiens, UniProt P08183). The data set can be described thus: TP_TRANSPORTER: transepithelial transport (basal to apical) in MDR1-expressing LLC-PK1 cells. The class given is functional, cell-based. As to conditions: pig.
Chain of ATP-dependent translocase ABCB1 (Homo sapiens, UniProt P08183) (P08183 whole entry): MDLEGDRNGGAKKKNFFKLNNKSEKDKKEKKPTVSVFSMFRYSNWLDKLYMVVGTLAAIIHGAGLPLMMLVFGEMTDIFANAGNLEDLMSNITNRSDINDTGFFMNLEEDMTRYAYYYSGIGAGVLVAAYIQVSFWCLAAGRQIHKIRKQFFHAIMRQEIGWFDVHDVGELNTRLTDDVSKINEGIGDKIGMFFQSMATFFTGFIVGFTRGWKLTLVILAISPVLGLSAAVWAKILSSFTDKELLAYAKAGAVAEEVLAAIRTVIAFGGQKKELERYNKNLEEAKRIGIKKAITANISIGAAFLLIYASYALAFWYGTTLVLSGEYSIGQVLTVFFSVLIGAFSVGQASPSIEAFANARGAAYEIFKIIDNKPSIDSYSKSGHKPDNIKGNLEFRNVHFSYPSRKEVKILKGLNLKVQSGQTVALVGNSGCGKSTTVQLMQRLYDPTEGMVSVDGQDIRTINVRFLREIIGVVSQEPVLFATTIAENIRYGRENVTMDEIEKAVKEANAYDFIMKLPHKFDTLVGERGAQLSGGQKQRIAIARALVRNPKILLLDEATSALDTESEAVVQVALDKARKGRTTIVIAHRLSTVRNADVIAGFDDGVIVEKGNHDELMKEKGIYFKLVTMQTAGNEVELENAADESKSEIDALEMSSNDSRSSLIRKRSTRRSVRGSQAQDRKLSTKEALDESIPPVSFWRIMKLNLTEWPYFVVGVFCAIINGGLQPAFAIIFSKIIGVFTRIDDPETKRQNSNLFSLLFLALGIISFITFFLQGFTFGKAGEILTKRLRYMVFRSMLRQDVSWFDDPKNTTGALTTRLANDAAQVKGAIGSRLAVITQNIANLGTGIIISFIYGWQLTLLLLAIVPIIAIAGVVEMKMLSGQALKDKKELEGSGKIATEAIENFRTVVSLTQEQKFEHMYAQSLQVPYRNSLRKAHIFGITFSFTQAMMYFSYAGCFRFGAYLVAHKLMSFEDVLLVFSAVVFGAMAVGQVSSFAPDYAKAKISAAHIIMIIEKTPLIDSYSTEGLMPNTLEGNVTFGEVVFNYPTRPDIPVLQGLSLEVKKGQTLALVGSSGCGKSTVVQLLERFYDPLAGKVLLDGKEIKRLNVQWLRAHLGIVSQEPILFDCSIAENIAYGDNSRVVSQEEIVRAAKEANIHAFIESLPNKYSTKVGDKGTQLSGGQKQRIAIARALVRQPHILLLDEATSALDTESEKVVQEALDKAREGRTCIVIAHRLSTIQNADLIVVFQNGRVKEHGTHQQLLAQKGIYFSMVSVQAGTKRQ
Data set [3] concerns the target T1, ATP-dependent translocase ABCB1. Briefly: TP_TRANSPORTER: transepithelial transport (basal to apical) in mdr1a-expressing LLC-PK1 cell. In kind it is functional, cell-based. The settings on record: pig.

T1 sequence (P21447 whole entry): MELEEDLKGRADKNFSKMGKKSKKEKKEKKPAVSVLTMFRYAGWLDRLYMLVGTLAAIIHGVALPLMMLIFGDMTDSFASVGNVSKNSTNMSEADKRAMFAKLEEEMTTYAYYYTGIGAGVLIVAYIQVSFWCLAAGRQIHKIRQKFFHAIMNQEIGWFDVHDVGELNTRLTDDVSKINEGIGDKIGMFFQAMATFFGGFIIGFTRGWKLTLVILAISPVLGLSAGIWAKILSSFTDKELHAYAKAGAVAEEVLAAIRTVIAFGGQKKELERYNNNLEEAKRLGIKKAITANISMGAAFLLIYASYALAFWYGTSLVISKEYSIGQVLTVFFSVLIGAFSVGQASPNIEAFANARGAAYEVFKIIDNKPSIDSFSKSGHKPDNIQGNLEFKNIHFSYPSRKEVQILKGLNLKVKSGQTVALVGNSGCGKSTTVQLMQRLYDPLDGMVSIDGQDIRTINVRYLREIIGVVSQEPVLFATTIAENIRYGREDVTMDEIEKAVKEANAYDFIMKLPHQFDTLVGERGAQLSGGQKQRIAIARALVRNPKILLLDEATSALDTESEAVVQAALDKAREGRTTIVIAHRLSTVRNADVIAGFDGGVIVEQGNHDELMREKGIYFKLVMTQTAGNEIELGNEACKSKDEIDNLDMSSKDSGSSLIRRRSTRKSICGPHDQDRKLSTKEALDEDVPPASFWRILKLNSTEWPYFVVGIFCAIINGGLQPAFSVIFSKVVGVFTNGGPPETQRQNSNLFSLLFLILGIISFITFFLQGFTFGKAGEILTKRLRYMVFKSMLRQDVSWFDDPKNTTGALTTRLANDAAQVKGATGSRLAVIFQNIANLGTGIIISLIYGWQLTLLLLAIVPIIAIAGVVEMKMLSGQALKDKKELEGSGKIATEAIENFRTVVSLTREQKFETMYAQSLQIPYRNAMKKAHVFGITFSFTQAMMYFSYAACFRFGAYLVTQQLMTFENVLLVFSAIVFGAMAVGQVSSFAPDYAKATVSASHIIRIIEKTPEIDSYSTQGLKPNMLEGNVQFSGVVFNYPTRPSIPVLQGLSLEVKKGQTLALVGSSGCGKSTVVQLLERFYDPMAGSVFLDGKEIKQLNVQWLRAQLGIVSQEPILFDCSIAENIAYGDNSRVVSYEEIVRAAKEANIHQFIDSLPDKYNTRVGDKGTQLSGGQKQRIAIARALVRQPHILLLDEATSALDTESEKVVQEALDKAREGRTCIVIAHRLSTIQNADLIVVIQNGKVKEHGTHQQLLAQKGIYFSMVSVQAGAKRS

With `CN(C)C(=O)C(CCN1CCC(O)(c2ccc(Cl)cc2)CC1)(c1ccccc1)c1ccccc1` [LOPERAMIDE], the Activity entry in data set [1], in data set [2] and in data set [3] was “substrate [+]” throughout.

`O=C1NC(=O)C(c2ccccc2)(c2ccccc2)N1` [PHENYTOIN]: the Activity entry in data set [3] is “substrate [+]”.

For the compound `Cc1nccn1CC1CCc2c(c3ccccc3n2C)C1=O` (stereo unspecified) [ONDANSETRON], the Activity result in data set [1] and in data set [3] was “substrate [+]” in each case.
